# Assay results reported in article PMC10938783, “A novel pan-PI3K inhibitor KTC1101 synergizes with anti-PD-1 therapy by targeting tumor suppression and immune activation” (Molecular Cancer, 2024).
# Several values for one entry are separate records, joined by “and”; a condition that tells them apart may be missing. Identical values can stand only once.
# Tested on: B16 cells gene expression
# Assay: RNA-Seq (DEGs, GSEA, heatmaps) of B16 cells
# Settings: B16 cells, replicates KTC1-KTC3
smiles,measurement,setting,value
COc1cc(N)cc2c1nc(C(F)F)n2-c1nc(N2CCCOCC2)nc(N2CCOCC2)n1 [KTC],Adam19 gene expression (RNA-Seq),KTC 0.04μM,11.78 and 12.44 and 13.05
same,Axl gene expression (RNA-Seq),KTC 0.04μM,4.83 and 4.54 and 4.92
same,Btg1 gene expression (RNA-Seq),KTC 0.04μM,6.87 and 7.6 and 7.15
same,Capg gene expression (RNA-Seq),KTC 0.04μM,24.95 and 22.04 and 23.37
same,Ccl5 gene expression (RNA-Seq),KTC 0.04μM,9.15 and 9.99 and 10.19
same,Ccn1 gene expression (RNA-Seq),KTC 0.04μM,37.5 and 41.45 and 42.8
same,Ccnd1 gene expression (RNA-Seq),KTC 0.04μM,70.38 and 71.17 and 69.7
same,Cx3cl1 gene expression (RNA-Seq),KTC 0.04μM,1.55 and 2.17 and 1.72
same,Cxcl10 gene expression (RNA-Seq),KTC 0.04μM,16.76 and 15.67 and 17.26
same,Dusp1 gene expression (RNA-Seq),KTC 0.04μM,4.08 and 4.86 and 3.75
same,Dusp4 gene expression (RNA-Seq),KTC 0.04μM,48.69 and 51.07 and 50.43
same,Egr1 gene expression (RNA-Seq),KTC 0.04μM,0.45 and 0.83 and 0.94
same,Etv4 gene expression (RNA-Seq),KTC 0.04μM,1.8 and 1.31 and 1.55
same,Fos gene expression (RNA-Seq),KTC 0.04μM,5.98 and 9.07 and 3.6
same,Fosb gene expression (RNA-Seq),KTC 0.04μM,5.83 and 8.56 and 1.19
same,Hes1 gene expression (RNA-Seq),KTC 0.04μM,2.93 and 3.6 and 4.11
same,Irak2 gene expression (RNA-Seq),KTC 0.04μM,4.46 and 3.71 and 4.84
same,Irf6 gene expression (RNA-Seq),KTC 0.04μM,0.75 and 0.73 (2×)
same,Irs2 gene expression (RNA-Seq),KTC 0.04μM,4.62 and 4.54 and 4.48
same,Jag1 gene expression (RNA-Seq),KTC 0.04μM,3.9 and 3.6 and 3.87
same,Junb gene expression (RNA-Seq),KTC 0.04μM,5.41 and 5.91 and 6.31
same,Klf2 gene expression (RNA-Seq),KTC 0.04μM,2.37 and 2.53 and 1.84
same,Klf9 gene expression (RNA-Seq),KTC 0.04μM,1.42 and 1.56 and 1.52
same,Maff gene expression (RNA-Seq),KTC 0.04μM,1.99 and 1.97 and 1.81
same,Myc gene expression (RNA-Seq),KTC 0.04μM,51.1 and 50.03 and 54.71
same,Nfkb2 gene expression (RNA-Seq),KTC 0.04μM,19.99 and 21.56 and 22.54
same,Nfkbia gene expression (RNA-Seq),KTC 0.04μM,16.08 and 16.06 and 15.47
same,Nfkbie gene expression (RNA-Seq),KTC 0.04μM,12.93 and 13.17 and 14.09
same,Nr4a1 gene expression (RNA-Seq),KTC 0.04μM,27.6 and 28.38 and 30.22
same,Nr4a3 gene expression (RNA-Seq),KTC 0.04μM,13.97 and 13.13 and 12.62
same,P2rx7 gene expression (RNA-Seq),KTC 0.04μM,9.9 and 10.96 and 10.37
same,Pde4b gene expression (RNA-Seq),KTC 0.04μM,7.81 and 8.81 and 8.51
same,Pmepa1 gene expression (RNA-Seq),KTC 0.04μM,0.72 and 0.75 and 0.79
same,Pnrc1 gene expression (RNA-Seq),KTC 0.04μM,23.22 and 24.79 and 24.57
same,Relb gene expression (RNA-Seq),KTC 0.04μM,7.12 and 7.46 and 7.78
same,Rgs16 gene expression (RNA-Seq),KTC 0.04μM,6.49 and 5.97 and 6.54
same,Rhob gene expression (RNA-Seq),KTC 0.04μM,30.37 and 32.79 and 32.66
same,Serpine1 gene expression (RNA-Seq),KTC 0.04μM,0.22 and 0.24 and 0.32
same,Sgk1 gene expression (RNA-Seq),KTC 0.04μM,3.46 and 3.48 and 3.41
same,Sgms2 gene expression (RNA-Seq),KTC 0.04μM,0.2 and 0.16 and 0.24
same,Spred2 gene expression (RNA-Seq),KTC 0.04μM,15.32 and 15.07 and 16.22
same,Spry4 gene expression (RNA-Seq),KTC 0.04μM,1.16 and 1.17 and 1.15
same,Tiparp gene expression (RNA-Seq),KTC 0.04μM,15.99 and 15.69 and 16.6
same,Zc3h12a gene expression (RNA-Seq),KTC 0.04μM,2.43 and 2.61 and 1.93
same,Zfp36 gene expression (RNA-Seq),KTC 0.04μM,3.85 and 4.04 and 4.57
same,Adam19 gene expression (RNA-Seq),KTC 0.2μM,19.27 and 19.65 and 19.87
same,Adcy1 gene expression (RNA-Seq),KTC 0.2μM,0.05 (2×) and 0.09
same,Adcy6 gene expression (RNA-Seq),KTC 0.2μM,15.71 and 16.34 and 15.68
same,Adcy7 gene expression (RNA-Seq),KTC 0.2μM,24.18 and 23.98 and 24.16
same,Ahr gene expression (RNA-Seq),KTC 0.2μM,3.75 and 3.9 and 4.26
same,Arrb1 gene expression (RNA-Seq),KTC 0.2μM,7.32 and 7.58 and 7.1
same,Axl gene expression (RNA-Seq),KTC 0.2μM,19.13 and 18.11 and 18.34
same,Bcl3 gene expression (RNA-Seq),KTC 0.2μM,1.26 and 1.46 and 1.81
same,Birc3 gene expression (RNA-Seq),KTC 0.2μM,0.82 and 0.69 and 1.02
same,Btg1 gene expression (RNA-Seq),KTC 0.2μM,10.22 and 9.53 and 9.68
same,Capg gene expression (RNA-Seq),KTC 0.2μM,39.95 and 40.18 and 41.23
same,Ccl5 gene expression (RNA-Seq),KTC 0.2μM,26.92 and 30.51 and 26.01
same,Ccl6 gene expression (RNA-Seq),KTC 0.2μM,0.22 (2×) and 0.39
same,Ccl9 gene expression (RNA-Seq),KTC 0.2μM,0.11 and 0.07 and 0.02
same,Ccl27b gene expression (RNA-Seq),KTC 0.2μM,0.37 and 0.93 and 0.69
same,Ccn1 gene expression (RNA-Seq),KTC 0.2μM,43.03 and 43.88 and 47.2
same,Ccnd1 gene expression (RNA-Seq),KTC 0.2μM,93.08 and 94.99 and 95.21
same,Cish gene expression (RNA-Seq),KTC 0.2μM,2.04 and 1.79 and 1.74
same,Ckap4 gene expression (RNA-Seq),KTC 0.2μM,13.31 and 12.58 and 12.66
same,Cx3cl1 gene expression (RNA-Seq),KTC 0.2μM,1.83 and 1.75 and 1.74
same,Cxcl1 gene expression (RNA-Seq),KTC 0.2μM,0.29 and 0.77 and 0.5
same,Cxcl10 gene expression (RNA-Seq),KTC 0.2μM,23.61 and 22.04 and 22.99
same,Cxcr3 gene expression (RNA-Seq),KTC 0.2μM,1.95 and 1.7 and 1.8
same,Dcps gene expression (RNA-Seq),KTC 0.2μM,124.78 and 129.34 and 129.92
same,Dusp1 gene expression (RNA-Seq),KTC 0.2μM,6.18 and 4.88 and 5.31
same,Dusp4 gene expression (RNA-Seq),KTC 0.2μM,74.48 and 66.32 and 71.85
same,Egr1 gene expression (RNA-Seq),KTC 0.2μM,2.42 and 2.39 and 2.31
same,Egr2 gene expression (RNA-Seq),KTC 0.2μM,0.12 and 0.14 and 0.22
same,Etfbkmt gene expression (RNA-Seq),KTC 0.2μM,13.18 and 12.47 and 12.84
same,Etv4 gene expression (RNA-Seq),KTC 0.2μM,2.57 and 3.09 and 3.52
same,Fos gene expression (RNA-Seq),KTC 0.2μM,6.53 and 3.78 and 2.09
same,Fosb gene expression (RNA-Seq),KTC 0.2μM,6.21 and 3 and 0.33
same,Gnb4 gene expression (RNA-Seq),KTC 0.2μM,8.23 and 8.94 and 8.73
same,Gng11 gene expression (RNA-Seq),KTC 0.2μM,47.07 and 50.78 and 52.97
same,Gsto1 gene expression (RNA-Seq),KTC 0.2μM,56.3 and 52.98 and 58.2
same,Hes1 gene expression (RNA-Seq),KTC 0.2μM,4.87 and 4.41 and 5.8
same,Ifitm3 gene expression (RNA-Seq),KTC 0.2μM,48.58 and 48.45 and 50.69
same,Igf1r gene expression (RNA-Seq),KTC 0.2μM,6.64 and 6.31 and 6.49
same,Ikzf2 gene expression (RNA-Seq),KTC 0.2μM,0.58 and 0.65 and 0.83
same,Il3ra gene expression (RNA-Seq),KTC 0.2μM,8.13 and 8.28 and 7.91
same,Il4ra gene expression (RNA-Seq),KTC 0.2μM,0.35 and 0.33 and 0.39
same,Il15ra gene expression (RNA-Seq),KTC 0.2μM,0.8 and 0.77 and 0.98
same,Il18 gene expression (RNA-Seq),KTC 0.2μM,2.98 and 3.73 and 3.81
same,Irak2 gene expression (RNA-Seq),KTC 0.2μM,6.66 and 7.18 and 6.91
same,Irf6 gene expression (RNA-Seq),KTC 0.2μM,0.95 and 0.94 and 0.76
same,Irs2 gene expression (RNA-Seq),KTC 0.2μM,6.99 and 6.74 and 7.06
same,Jag1 gene expression (RNA-Seq),KTC 0.2μM,5.14 and 5.2 and 5.32
same,Junb gene expression (RNA-Seq),KTC 0.2μM,9.95 and 9.21 and 10.31
same,Klf2 gene expression (RNA-Seq),KTC 0.2μM,5.92 and 4.44 and 4.22
same,Klf4 gene expression (RNA-Seq),KTC 0.2μM,1.74 and 0.87 and 0.94
same,Klf9 gene expression (RNA-Seq),KTC 0.2μM,2.21 and 2.14 and 2.03
same,Lif gene expression (RNA-Seq),KTC 0.2μM,0.18 and 0.1 and 0.2
same,Lrrc8c gene expression (RNA-Seq),KTC 0.2μM,9.54 and 9.91 and 9.16
same,Maff gene expression (RNA-Seq),KTC 0.2μM,8.01 and 8.27 and 7.95
same,Myc gene expression (RNA-Seq),KTC 0.2μM,80.51 and 79.74 and 85.17
same,Nfkb2 gene expression (RNA-Seq),KTC 0.2μM,29.06 and 30.4 and 30.6
same,Nfkbia gene expression (RNA-Seq),KTC 0.2μM,28.35 and 27.12 and 24.65
same,Nfkbie gene expression (RNA-Seq),KTC 0.2μM,23.83 and 25.35 and 25
same,Nr4a1 gene expression (RNA-Seq),KTC 0.2μM,46.25 and 44.44 and 46.02
same,Nr4a3 gene expression (RNA-Seq),KTC 0.2μM,17.79 and 16.5 and 17.39
same,P2rx7 gene expression (RNA-Seq),KTC 0.2μM,16.97 and 18.85 and 16.56
same,Pde4b gene expression (RNA-Seq),KTC 0.2μM,11.38 and 11.69 and 11.76
same,Pim1 gene expression (RNA-Seq),KTC 0.2μM,7.35 and 8.15 and 8.02
same,Plcb2 gene expression (RNA-Seq),KTC 0.2μM,0.43 and 0.62 and 0.67
same,Plcg2 gene expression (RNA-Seq),KTC 0.2μM,1.3 and 1.71 and 1.76
same,Pmepa1 gene expression (RNA-Seq),KTC 0.2μM,1.45 and 1.08 and 1.06
same,Pnrc1 gene expression (RNA-Seq),KTC 0.2μM,33.48 and 28.22 and 29.95
same,Prnp gene expression (RNA-Seq),KTC 0.2μM,1380.34 and 1358.49 and 1354.58
same,Ptk2b gene expression (RNA-Seq),KTC 0.2μM,2.37 and 2.08 and 2.03
same,Relb gene expression (RNA-Seq),KTC 0.2μM,11.53 and 13.05 and 11.17
same,Rgs16 gene expression (RNA-Seq),KTC 0.2μM,9.71 and 10 and 9.9
same,Rhob gene expression (RNA-Seq),KTC 0.2μM,60.96 and 58.66 and 58.57
same,Serpine1 gene expression (RNA-Seq),KTC 0.2μM,1.09 and 0.86 and 1.2
same,Shc3 gene expression (RNA-Seq),KTC 0.2μM,0.37 and 0.31 and 0.25
same,Smad3 gene expression (RNA-Seq),KTC 0.2μM,20.9 and 21.03 and 22.24
same,Smpdl3a gene expression (RNA-Seq),KTC 0.2μM,36.94 and 40.39 and 39.45
same,Spred2 gene expression (RNA-Seq),KTC 0.2μM,19.27 and 21.51 and 19.83
same,Spry4 gene expression (RNA-Seq),KTC 0.2μM,2.44 and 2.59 and 2.62
same,Src gene expression (RNA-Seq),KTC 0.2μM,43.09 and 43.5 and 41.98
same,St3gal4 gene expression (RNA-Seq),KTC 0.2μM,75.01 and 74.93 and 70.63
same,Syt11 gene expression (RNA-Seq),KTC 0.2μM,7.36 and 7.81 and 7.47
same,Tlr2 gene expression (RNA-Seq),KTC 0.2μM,0.22 and 0.34 and 0.25
same,Tlr7 gene expression (RNA-Seq),KTC 0.2μM,0.79 and 0.75 and 0.7
same,Tnfaip3 gene expression (RNA-Seq),KTC 0.2μM,0.93 and 0.95 and 0.79
same,Zc3h12a gene expression (RNA-Seq),KTC 0.2μM,3.34 and 3.16 and 3.73
